Results as given in patent US8796323B2, “Defensin-like molecules as novel antimicrobial agents” (University of Maryland, Baltimore, priority 2010, dated 2014).

Assay: Surface Plasmon Resonance binding of HNP1 peptides and Lipid II
Details: ratio of Kd values
Description: Short-chain water-soluble Lipid II containing a lipid tail of three isoprene units was generated and purified essentially as described in Breukink, E., et al., 2003, “Lipid II is an intrinsic component of the pore induced by nisin in bacterial membranes,” J Biol Chem 278:19898-19903.
Typically, M. flavus vesicles (120 μmol lipid-Pi) were incubated together with 500 μmol UDP-GlcNAc, 500 μmol UDP-MurNAC-pentapeptide and 400 μmol farnesyl phosphate in 100 mM Tris-HCl pH 8.0, 5 mM MgCl2. The incubation lasted two hours at room temperature for 3-P. The synthesis of 3-Lipid II was followed using RP-8 reversed phase TLC (Merck) developed in 75% methanol. […]
Surface Plasmon Resonance binding experiments were carried out on a BIAcore T100 system (BIAcore Inc., Piscataway, N.Y.) at 25° C. […] Association and dissociation were assessed for 300 and 600 second, respectively. […] Binding isotherms were analyzed with manufacturer-supplied software for BIAcore T100 and/or GraphPad Prism 4.0.
The inventors used a Surface Plasmon Resonance (SPR) approach to determine the binding of HNP1 to Lipid II directly. Initial binding of L-HNP1, D-HNP1 and linear HNP1 to soluble Lipid II immobilized on the chip surface was determined. […]

## HNP1: α-defensin Human Neutrophil Peptide 1, chemically synthesized and folded
  affinity for Lipid II, L-HNP1 relative to D-HNP1: approximately five times higher affinity than the D-peptide
